In experiment [1] the test system is Neogenin-induced apoptosis in chick tecta. Briefly: TUNEL assay after Neogenin electroporation. Type of experiment: in vivo. Conditions: injected into tecta after Neogenin electroporation; for number of TUNEL+ cells: without agent 432±23. On the procedure:
(A) HEK293 cells that stably express RGMa (FIG. 11) were transfected with empty plasmid (Ctrl) or Neogenin (Neo). Neogenin induced cell death (arrows) when compared to control. (B) Quantification of cell death in Neogenin-transfected cells that were incubated in BSA (Neo+Ctrl), 4Ig (1 μg/ml), N-Raft (1 μg/ml), Noggin (100 nM), or MβCD (10 mM). […] Data were average±SEM (n=3 independent experiments), *p<0.0001. (C) Representative images and (D) Quantification of cell death in chick E5 tecta electroporated with GFP- and a Neogenin-expression plasmid and then injected with N-RGMa50-99 (Ctrl; 1 μg/ml), 4Ig (1 μg/ml), or N-Raft (1 μg/ml) and subjected to TUNEL assay. […] Data were an average±SEM from 3 different tecta/conditions (*p<0.001). Bar, 100 μm. (E) Representative images and (F) Quantification of retinal whole mounts incubated for 4 days with control peptide (1 μg/ml), 4Ig (1 μg/ml), N-Raft (1 μg/ml), or MβCD (10 mM) and dead cells were stained with Propidium Iodide (PI). Images from 9 whole mounts per condition from 3 independent experiments were taken at the same intensities and the fluorescence measured using ImageJ. […] Bar, 500 μm. (G) Fluorescence micrographs of flat-mounted retinas depicting Fluorogold-labeled retinal ganglion cells (RGCs) in injured retinas at 14 days following axotomy. Control retinas (Ctrl) had few surviving RGCs. 4Ig, N-raft or MβCD increased cell survival. Bar, 200 μm. (H) Representations of the retinal areas selected in our analyses. […] Data were average±SEM (n=6 eyes), *p<0.01.
RGMa was expressed in the developing chick neural tube, and thus, to determine if Neogenin required lipid rafts for its pro-death function in vivo, apoptosis was examined in the neural tubes of chick embryos (E2). Specifically, a GFP-construct was electroporated with plasmids that expressed either Mock or Neogenin and apoptosis was assayed by TUNEL staining.

Experiment [2] concerns RGC axons in injured optic nerve. Briefly: Optic nerve crush, RGC axon regeneration (GAP-43) and intraretinal integrity. It is filed as in vivo, rat. Conditions: for intraretinal integrity of RGC axons (CTB-FITC): after optic nerve crush. On the procedure:
All animals were female Sprague-Dawley rats weighing 250-300 g, which were kept in a pathogen free environment. […] Injections were performed using a 10-μl Hamilton syringe actuated by a computer controlled Picopump (World Precision Instruments). […] The needle was left in place for 10 min after each injection and slowly withdrawn to prevent reflux of the injected solutions up the needle tract.
Additionally, for crushing nerve surgical procedures, animals were placed in a stereotaxic frame and ventilated with isoflurane (2%; 0.8 L/min O2) through a gas anesthesia mask. […] The optic nerve was crushed using fine self-closing forceps for 6 seconds. Eventually, the orbital contents were gently returned to their original location and the initial incision was closed. Following surgery, under a heat lamp, animal were maintained at 37° C. in the normothermic condition and they were given Ketoprofen (5 mg/mL, dosage for rats: 0.1 mL/100 g bodyweight) and sterile saline to ease postsurgical recovery.
In order to evaluate the effects of 4Ig, N-Raft, and MβCD on RGC survival and regeneration after optic nerve crush, 4 μl intraocular injection of 4Ig (250 ng/μl) and N-Raft (150 ng/μl) solutions were delivered at 3 and 10 days after injury. Additionally, these two groups received 4Ig and N-Raft in a dose of 1 mg/kg, via intrajugular vein at 3 and 10 days postcrush. Separately, animals in MβCD group, received intraperitoneal injection of MβCD at 1000 mg/kg/week for 3 weeks after nerve crush on a once-a-day schedule.
Firstly, RGC axon regeneration and intraretinal integrity was examined at twenty-one days after optic nerve crush. […]. CTB-FITC was anterogradly transported within the axon to reach the synaptic membrane.
RGC axon regeneration was examined at twenty-one days after optic nerve crush. Animals were perfused with 4% paraformaldehyde via the ascending aorta, while the descending aorta was clamped off, and the optic nerves were removed. The nerves were post-fixed overnight in the same fixative solution, plus 30% sucrose in PBS for 7 days at […]. The fixed nerves were consecutively sectioned at 14 μm in thickness with a Leica CM1950 cryostat microtome. The slides were first incubated overnight at 4° C. in primary antisera directed against growth associated protein-43 (GAP-43), a marker of regenerating retinal ganglion cell axons in both neonatal and adult RGCs. Primary antisera (rabbit polyclonal, 1:250, Cell Signaling Technology/NEB) were diluted in PBS containing 0.3% Triton X-100 and 3% normal goat serum. Following primary antibody incubation, sections were rinsed three times for 15 minutes in PBS and followed by three hours incubation with FITC labeled secondary antibody at room temperature.
The slides were then rinsed three times for 15 minutes in PBS before cover slipping with 50:50 glycerol/PBS. The total number of regenerating axon growth cones within bins of the optic nerve, beginning anterior to the crush site and proceeding distally, were quantified. The bins were as follows: 0-250, 250-500, and >500 μm. A total of four equally spaced sections through the width of each optic nerve were examined and quantified using a Leica DM LFSA microscope (20× objective) with an Andor iXon 885+ camera, with EMgain applied.

The subject of experiment [3] is retinal axons (axonal pathfinding). In words: In ovo electroporation and DiI tracing of axonal paths. It is filed as in vivo, chick. Conditions: ectopic expression in the eye at E2. The procedure:
Eggs (White Leghorn) were incubated at 38° C. in a high humidity chamber. A small amount of viral solution (viral titers of 1×10^8 IU/ml) was mixed with 1/10 volume of 0.25% fast green solution (Molecular Probes) and injected in the tectum at E1.5. Eggs were further incubated until E15, when a small DiI crystal (Molecular Probes) was placed in the temporo-dorsal part of the right eye. At E17, embryos were sacrificed and the tecta fixed in 4% PFA. DiI tracing was viewed under the microscope (Olympus BX61) after cutting the tecta in half. Digital Images of the tecta were taken and processed using Photoshop (Adobe). Alternatively, plasmid constructs were electroporated into the optic vesicle to restrict expression to the eye and tracing performed as above.
To study the effect of the interaction between 4Ig and N-Raft on axonal paths in vivo, 4Ig, N-Raft, and the control NRGMa^50-99 were ectopically expressed and axonal pathfinding was examined. To ensure that the treatments affected growing axons and not their environment, when electroporation was performed, the application of the electric field was narrowed to the optic vesicle at E2, thereby restricting expression to the eye and retinal axons (FIG. 3G).

The next experiment relates to injured spinal cord. Briefly: Spinal cord injury, immunostaining and quantitative analysis (NeuN, GFAP, lesion volume). Type of experiment: in vivo, rat. The conditions noted are these: for lesion volume compared to controls: rat, in vivo; for increase in number of peri-lesional neurons (NeuN) compared to controls: systemic application for 6 weeks.

Consider “N-Raft: peptide spanning amino acids 28-73 of RGMa (SEQ ID NO:2) (SPCKILKCNSEFWAATSGSHHLGAEETPEFCTALRAYAHCTRRTAR; N-Raft - amino acids 28-73 of RGMa)”, for which, in experiment [1], the “reduction of the number of TUNEL+ cells” value is listed as “about 4 fold” and the “number of TUNEL+ cells” value amounted to 103±8. The “regeneration beyond the lesion site” value in experiment [2] (21 days after crush) was “comparable to 4Ig”. Besides, the “intraretinal integrity of RGC axons (CTB-FITC)” value (“intraretinal integrity” below) in experiment [2] is “thicker axon bundles throughout the retina”. In experiment [3], the “electroporations that caused aberrant axonal paths” value was determined as 85.7%.

Turning to “methyl-β-cyclodextrin [MβCD, reference compound]”, in experiment [2] (IP injection), the “average number of axons per section, 250-500 μm” value is listed as 10.7±0.9; the “average number of axons per section, greater than 500 μm” value was 8.4±1.4; the “average number of axons per section, less than 250 μm” value was 23.7±1.2. Further, in experiment [2] (IP injection, all distances), the “average number of axons per section higher than controls” value is recorded as 7.1 fold. Moreover, in experiment [2], the “intraretinal integrity” value is “thicker axon bundles throughout the retina”. Besides, in the experiment with injured spinal cord, the “lesion volume compared to controls” value is reported as “did not significantly vary” and the “increase in number of peri-lesional neurons (NeuN) compared to controls” value is recorded as “about 2 fold”.

B1: 4Ig: four immunoglobulin-like domains of Neogenin, amino acids 1 to 383 of Accession No. AAC59662 (SEQ ID NO:1) (protein, listed as Gallus gallus)
chain: RSGPRSPLTGSVVRTFTPFYFLVEPMDILSVRGASVIMNCSSYCETPPKIEWKKDGTLLNLVSDDRRQLLPDGSLLINSVVHSKHNKPDEGYYQCVATVESLGSIVSRTAKLTVAGLPRFTSQPELSSVYKGNSAILNCEVNVDLAPFVRWEQDRQPLSLDDRVFKLPSGALLIGNATDTDGGFYRCVIESGGTPKYSEEAELKILPDPEEPQSLVFVRQPSSLTKVTGQNAVFPCVAGGFPTPYVRWTKNGEELITEDSERFALRAGGSLLISDVTEEDVGTYTCIADNENETIEAQAELAVQVPPEFLKRPANIYAHESMDIVFECEVTGKPTPTVKWVKNGDVVIPSDYFKIVKEHNLQVLGLVKSDEGFYQCIAENDVGNAQAGAQLIILDLDVAIPTLPPTSLTSATNDHLAPATTGPLPTAPRDVVATLVSTRFIRLTWRTPVSDPQGDNLTYSIFYTKEGINRERVENTSRPGETQVMIQNLMPETVYVFRVVAQNKHGHGESSAPLKVATQPEVQLPGPAPNIRAYAGSPTSVTVTWETPLSGNGEIQNYKLYYMEKGQDSEQDVDVAGLSYTITGLKKYTEYSFRVVAYNKHGPGVSTQDVVVRTLSDVPSAAPQNLTLEARNSKSIMLHWQPPPAGTHSGQITGYKIRYRKVSRKSDVTESVGGTQLFQLIEGLERGTEYNFRIAAMTVNGTGPATDWVSAETFESDLDESRVPEVPSSLHVRPLVTSIVVSWTPPENQNIVVRGYAIGYGIGSPHAQTIKVDYKQRYYTIENLDPSSHYVITLKAFNNVGEGIPLYESAVTRPHSDTSEVDLFVINAPYTPVPDPSPMMPPVGVQASILSHDTIRITWADNSLPKNQKITDARYYTVRWKTNIPANTKYKTANATTLSYLVTGLKPNTLYEFSVMVTKGRRSSTWSMTAHGTTFELVPTSPPKDVTVVSKEGKPRTIIVNWQPPSEANGKITGYIIYYSTDVNAEIHDWVIEPVVGNRLTHQIQELTLDTPYYFKIQARNSKGMGPMSEAVQFRTPKAESSDKMPNDQASGSAGKGSRPVDVGPDYKPPLSGSNSPHGSPTSPLDSNMLLVIIVSVGVITIVIVVIVAVFCTRRTTSHQKKKRAACKSVNGSHKYKGNSKDVKPPDLWIHHERLELKPIDKSPDPNPIMTDTPIPRNSQDITPVDNSMDSNIHQRRNSYRGHESEDSMSTLAGRRGMRPKMMMPFDSQPPQPVISAHPIHSLDNPHHHFHSGSLASPTRSYLHHQVSPWPVGTSMSHSDRANSTESVRNTPSSDTMPASSSQPCADHQDPDSSSGAYLGSAQEEDAAQSLPTAHVRPSHPLKSFAVPAVPAAGSAYDPTLPSTPLLTQQAPSHPVHSVKTASIGTLGRTRPPMPVVVPSAPDVQETTRMLEDSESSYEPDELTKEMAHLEGLMKDLNAITTA
modifications: Neogenin - Accession No. AAC59662
Regarding B1, in experiment [1], the “reduction of the number of TUNEL+ cells” value was “about 18 fold” and the “number of TUNEL+ cells” value was found to be 23±4. The “increase in number of regenerating axons relative to controls” value in experiment [2] (21 days after crush) is 5.7 fold. The “number of regenerating axons, greater than 500 μm” value in experiment [2] (21 days after crush, controls 76±24) is reported as 410±64. Further, the “number of regenerating axons, 250-500 μm” value in experiment [2] (21 days after crush, controls 108±12) was 640±128. Besides, the “number of regenerating axons, less than 250 μm” value in experiment [2] (21 days after crush, controls 224±36) was determined as 1134±68. Further, in experiment [2], the “intraretinal integrity” value is “thicker axon bundles throughout the retina”. Moreover, in the experiment with injured spinal cord (intrathecal application over 6 weeks), the “increase of NeuN positive cells in cross-sections of the spinal cord” value is reported as “about 2 fold”. Also, in the experiment on injured spinal cord, the “lesion volume compared to controls” value was “did not significantly vary” and the “increase in number of peri-lesional neurons (NeuN) compared to controls” value was “about 2 fold”. Also, the “electroporations that caused aberrant axonal paths” value in experiment [3] came to 100%.
